Laboratory results as given in ChEMBL document CHEMBL4014331, “Design and Synthesis of Soluble and Cell-Permeable PI3Kδ Inhibitors for Long-Acting Inhaled Administration” (J Med Chem, 2017).
≈ marks a conversion by molar mass, not a printed value.

Key:
[1] = molecular target: T1, Phosphatidylinositol 4,5-bisphosphate 3-kinase catalytic subunit delta isoform (Homo sapiens, UniProt O00329); test: Inhibition of PI3Kdelta in human JeKo1 cells assessed as reduction in Akt phosphorylation at Ser473 residue preincubated for 60 mins followed by Anti-IgM stimulation for 10 mins by TR-FRET assay; format: cell-based
T1 sequence (O00329 whole entry): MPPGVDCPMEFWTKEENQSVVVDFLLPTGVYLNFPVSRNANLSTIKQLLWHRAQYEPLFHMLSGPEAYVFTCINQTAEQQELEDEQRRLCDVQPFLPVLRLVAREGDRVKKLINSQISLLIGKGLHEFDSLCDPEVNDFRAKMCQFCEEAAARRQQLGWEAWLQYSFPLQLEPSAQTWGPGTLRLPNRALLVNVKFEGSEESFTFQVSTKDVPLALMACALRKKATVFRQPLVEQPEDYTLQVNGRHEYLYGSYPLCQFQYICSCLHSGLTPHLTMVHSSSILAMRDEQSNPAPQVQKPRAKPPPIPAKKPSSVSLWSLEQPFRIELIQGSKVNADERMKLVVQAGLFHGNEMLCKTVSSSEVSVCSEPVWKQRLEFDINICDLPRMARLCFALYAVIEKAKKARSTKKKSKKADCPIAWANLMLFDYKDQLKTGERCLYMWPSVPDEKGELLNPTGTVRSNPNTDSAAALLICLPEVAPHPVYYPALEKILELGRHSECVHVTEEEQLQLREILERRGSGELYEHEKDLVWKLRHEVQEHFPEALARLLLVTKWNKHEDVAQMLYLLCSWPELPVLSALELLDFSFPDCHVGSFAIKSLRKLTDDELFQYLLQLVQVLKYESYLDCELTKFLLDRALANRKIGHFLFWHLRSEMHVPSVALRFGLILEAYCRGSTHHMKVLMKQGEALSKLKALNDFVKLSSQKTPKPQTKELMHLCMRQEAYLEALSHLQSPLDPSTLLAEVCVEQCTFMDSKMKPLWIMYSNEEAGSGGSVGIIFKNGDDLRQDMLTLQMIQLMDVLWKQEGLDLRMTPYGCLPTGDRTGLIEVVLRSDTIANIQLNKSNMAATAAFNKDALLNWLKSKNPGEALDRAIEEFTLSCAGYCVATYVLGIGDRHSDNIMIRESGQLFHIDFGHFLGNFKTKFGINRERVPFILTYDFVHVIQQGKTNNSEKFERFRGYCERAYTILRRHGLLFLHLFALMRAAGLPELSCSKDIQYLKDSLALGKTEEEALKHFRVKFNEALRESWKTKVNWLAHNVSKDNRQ

[2] = Metabolic stability in it dosed rat lungs assessed as compound remaining at 24 hrs post dose by LC-MS/MS analysis; format: ADME, organism-based; conditions: lung, inhaled or intranasal, read-out: Stability
[3] = molecular target: PI3-kinase p110-delta/p85-alpha (Homo sapiens, UniProt O00329); test: Inhibition of recombinant human His6-tagged PI3K p110delta/p85alpha using DiC8-PIP2 as substrate preincubated for 15 mins followed by substrate addition measured after 60 mins by ADP-Glo assay; format: protein-complex assay
[4] = Lipophilicity, log D of the compound; format: physicochemical; conditions: octanol/water
[5] = Terminal half life in it dosed rat lung by LC-MS/MS analysis; format: ADME, organism-based; conditions: inhaled or intranasal, read-out: beta t1/2 (converted)
PI3K p110 beta/p85 alpha = PI3K p110 beta/p85 alpha (Homo sapiens, UniProt P42338); test: Inhibition of recombinant human His6-tagged PI3K p110beta/p85alpha using DiC8-PIP2 as substrate preincubated for 15 mins followed by substrate addition measured after 60 mins by ADP-Glo assay; format: protein-complex assay
[6] = molecular target: Phosphatidylinositol 4,5-bisphosphate 3-kinase catalytic subunit gamma isoform (Homo sapiens, UniProt P48736); test: Inhibition of recombinant human His6-tagged PI3Kgamma (144 to 1102 residues) using DiC8-PIP2 as substrate preincubated for 15 mins followed by substrate addition measured after 60 mins by ADP-Glo assay
[7] = Dissociation constant, basic pKa of compound; format: physicochemical
[8] = molecular target: PI3-kinase p110-alpha/p85-alpha (Homo sapiens, UniProt P42336); test: Inhibition of recombinant human His6-tagged PI3K p110alpha/p85alpha using DiC8-PIP2 as substrate preincubated for 15 mins followed by substrate addition measured after 60 mins by ADP-Glo assay; format: protein-complex assay
[9] = Dissociation constant, acidic pKa of compound; format: physicochemical
[10] = Solubility of the compound; format: physicochemical
[11] = Metabolic stability in it dosed rat lungs assessed as compound remaining at 4 hrs post dose by LC-MS/MS analysis; format: ADME, organism-based; conditions: lung, inhaled or intranasal, read-out: Stability
[12] = Metabolic stability in it dosed rat lungs assessed as compound remaining at 3 mins post dose by LC-MS/MS analysis; format: ADME, organism-based; conditions: lung, inhaled or intranasal, read-out: Stability

PI3-kinase p110-delta/p85-alpha, sequence (P27986 whole entry, one chain of several): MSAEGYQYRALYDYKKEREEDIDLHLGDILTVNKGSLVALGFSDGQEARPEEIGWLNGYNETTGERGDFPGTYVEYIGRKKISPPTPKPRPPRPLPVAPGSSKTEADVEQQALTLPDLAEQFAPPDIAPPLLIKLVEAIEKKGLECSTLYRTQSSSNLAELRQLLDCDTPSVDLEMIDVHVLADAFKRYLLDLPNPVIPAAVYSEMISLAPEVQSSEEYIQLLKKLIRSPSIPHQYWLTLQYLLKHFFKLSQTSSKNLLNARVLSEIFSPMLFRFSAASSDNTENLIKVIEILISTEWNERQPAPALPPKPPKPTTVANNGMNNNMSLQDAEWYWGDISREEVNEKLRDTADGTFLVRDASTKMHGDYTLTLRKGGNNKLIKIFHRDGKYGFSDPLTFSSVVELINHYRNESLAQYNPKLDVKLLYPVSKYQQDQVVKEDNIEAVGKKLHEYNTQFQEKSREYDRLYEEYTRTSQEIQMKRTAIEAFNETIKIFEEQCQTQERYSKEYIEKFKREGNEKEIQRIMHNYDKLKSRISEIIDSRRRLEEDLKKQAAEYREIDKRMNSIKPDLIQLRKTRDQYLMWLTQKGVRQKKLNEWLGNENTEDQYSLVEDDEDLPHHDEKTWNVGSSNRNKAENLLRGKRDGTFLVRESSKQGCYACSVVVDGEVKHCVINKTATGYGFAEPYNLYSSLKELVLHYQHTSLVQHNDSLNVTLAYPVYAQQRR
PI3-kinase p110-alpha/p85-alpha, sequence (P27986 whole entry): as the sequence (P27986 whole entry, one chain of several) above
PI3-kinase p110-alpha/p85-alpha, sequence (P42336 whole entry): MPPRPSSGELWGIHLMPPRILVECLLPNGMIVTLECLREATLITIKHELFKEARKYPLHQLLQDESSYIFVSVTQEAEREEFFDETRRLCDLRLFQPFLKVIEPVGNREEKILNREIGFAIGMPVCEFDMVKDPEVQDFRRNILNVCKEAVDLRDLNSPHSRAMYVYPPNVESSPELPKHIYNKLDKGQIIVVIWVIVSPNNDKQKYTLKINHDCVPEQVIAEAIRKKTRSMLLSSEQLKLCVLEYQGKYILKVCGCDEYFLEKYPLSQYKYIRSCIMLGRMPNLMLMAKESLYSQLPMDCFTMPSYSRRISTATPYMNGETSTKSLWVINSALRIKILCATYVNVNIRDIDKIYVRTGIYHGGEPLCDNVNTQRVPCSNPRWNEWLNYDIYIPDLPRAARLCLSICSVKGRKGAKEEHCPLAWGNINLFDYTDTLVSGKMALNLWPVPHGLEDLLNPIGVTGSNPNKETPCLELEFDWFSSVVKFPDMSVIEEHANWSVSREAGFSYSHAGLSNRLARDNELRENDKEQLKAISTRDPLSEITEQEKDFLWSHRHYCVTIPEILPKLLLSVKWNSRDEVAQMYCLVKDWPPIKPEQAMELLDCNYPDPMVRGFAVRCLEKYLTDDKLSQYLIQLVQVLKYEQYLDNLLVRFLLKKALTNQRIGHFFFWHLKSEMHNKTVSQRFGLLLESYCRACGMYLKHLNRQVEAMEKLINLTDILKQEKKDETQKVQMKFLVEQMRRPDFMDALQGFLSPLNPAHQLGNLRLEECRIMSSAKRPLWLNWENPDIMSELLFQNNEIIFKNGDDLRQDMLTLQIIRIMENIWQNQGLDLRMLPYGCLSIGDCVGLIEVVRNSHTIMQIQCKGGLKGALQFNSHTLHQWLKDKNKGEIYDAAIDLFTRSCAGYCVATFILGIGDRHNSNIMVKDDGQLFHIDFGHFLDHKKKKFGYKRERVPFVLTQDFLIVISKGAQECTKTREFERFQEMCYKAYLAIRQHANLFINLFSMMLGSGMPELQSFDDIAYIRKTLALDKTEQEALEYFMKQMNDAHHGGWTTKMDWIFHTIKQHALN
PI3K p110 beta/p85 alpha, sequence (P27986 whole entry, the tested form may be a part, canonical isoform): as the sequence (P27986 whole entry, one chain of several) above
PI3K p110 beta/p85 alpha, sequence (P42338 whole entry, the tested form may be a part, canonical isoform): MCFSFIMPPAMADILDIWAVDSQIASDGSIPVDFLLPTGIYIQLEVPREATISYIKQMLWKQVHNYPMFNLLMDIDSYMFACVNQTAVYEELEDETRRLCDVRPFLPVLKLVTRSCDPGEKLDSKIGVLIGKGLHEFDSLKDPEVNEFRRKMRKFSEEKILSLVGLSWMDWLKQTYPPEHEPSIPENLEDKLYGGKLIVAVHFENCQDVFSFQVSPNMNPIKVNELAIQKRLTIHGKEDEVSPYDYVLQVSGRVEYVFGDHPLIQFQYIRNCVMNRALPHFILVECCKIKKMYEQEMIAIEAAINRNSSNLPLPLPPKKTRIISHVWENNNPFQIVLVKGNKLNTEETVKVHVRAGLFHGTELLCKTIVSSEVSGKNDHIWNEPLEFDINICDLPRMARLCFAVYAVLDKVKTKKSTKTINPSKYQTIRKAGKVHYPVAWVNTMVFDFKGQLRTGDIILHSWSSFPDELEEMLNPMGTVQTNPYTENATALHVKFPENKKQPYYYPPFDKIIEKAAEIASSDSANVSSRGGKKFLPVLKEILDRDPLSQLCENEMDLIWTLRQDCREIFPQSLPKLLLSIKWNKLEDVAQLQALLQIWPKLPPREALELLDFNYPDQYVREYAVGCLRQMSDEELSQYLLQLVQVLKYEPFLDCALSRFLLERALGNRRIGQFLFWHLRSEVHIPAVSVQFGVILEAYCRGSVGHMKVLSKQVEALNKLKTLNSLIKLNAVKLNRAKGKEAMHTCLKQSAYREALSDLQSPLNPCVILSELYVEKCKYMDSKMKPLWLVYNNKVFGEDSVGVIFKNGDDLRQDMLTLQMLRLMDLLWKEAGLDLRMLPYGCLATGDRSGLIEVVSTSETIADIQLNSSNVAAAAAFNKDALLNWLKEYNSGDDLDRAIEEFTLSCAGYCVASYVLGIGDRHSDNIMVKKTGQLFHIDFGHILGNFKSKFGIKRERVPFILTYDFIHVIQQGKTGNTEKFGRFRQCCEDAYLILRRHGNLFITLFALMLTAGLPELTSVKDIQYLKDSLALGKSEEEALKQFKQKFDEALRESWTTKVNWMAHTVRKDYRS
Phosphatidylinositol 4,5-bisphosphate 3-kinase catalytic subunit gamma isoform, sequence (P48736 whole entry, the tested form may be a part, canonical isoform): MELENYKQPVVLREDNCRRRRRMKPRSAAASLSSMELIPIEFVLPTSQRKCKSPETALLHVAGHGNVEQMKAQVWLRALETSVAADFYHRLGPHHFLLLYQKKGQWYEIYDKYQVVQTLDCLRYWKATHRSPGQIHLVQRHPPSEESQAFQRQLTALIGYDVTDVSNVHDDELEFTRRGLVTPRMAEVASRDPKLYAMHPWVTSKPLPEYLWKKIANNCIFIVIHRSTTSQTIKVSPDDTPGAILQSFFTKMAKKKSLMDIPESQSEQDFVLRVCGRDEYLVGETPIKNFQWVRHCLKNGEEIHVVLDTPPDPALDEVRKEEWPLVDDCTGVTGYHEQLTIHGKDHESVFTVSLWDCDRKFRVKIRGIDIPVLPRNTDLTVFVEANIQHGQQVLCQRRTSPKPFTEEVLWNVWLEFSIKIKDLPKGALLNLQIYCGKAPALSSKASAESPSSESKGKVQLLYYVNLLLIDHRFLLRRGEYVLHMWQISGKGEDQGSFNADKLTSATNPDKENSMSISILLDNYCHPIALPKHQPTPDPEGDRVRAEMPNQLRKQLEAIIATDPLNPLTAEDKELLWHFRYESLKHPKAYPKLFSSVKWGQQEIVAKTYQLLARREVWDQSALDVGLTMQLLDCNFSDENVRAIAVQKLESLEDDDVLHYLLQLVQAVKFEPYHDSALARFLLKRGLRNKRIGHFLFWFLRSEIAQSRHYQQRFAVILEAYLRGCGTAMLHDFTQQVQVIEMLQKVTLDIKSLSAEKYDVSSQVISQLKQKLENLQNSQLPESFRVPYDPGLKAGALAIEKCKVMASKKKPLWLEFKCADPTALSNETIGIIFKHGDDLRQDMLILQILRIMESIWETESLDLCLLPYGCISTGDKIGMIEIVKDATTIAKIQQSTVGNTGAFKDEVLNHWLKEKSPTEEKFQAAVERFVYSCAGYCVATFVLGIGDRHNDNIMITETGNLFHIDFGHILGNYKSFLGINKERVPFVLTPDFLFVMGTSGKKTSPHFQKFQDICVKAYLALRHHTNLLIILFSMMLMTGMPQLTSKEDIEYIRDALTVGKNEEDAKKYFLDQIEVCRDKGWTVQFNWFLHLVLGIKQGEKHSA

SMILES | IC50 [1] | remaining at 24 h [2] | IC50 [3] | logD [4] | half-life [5] | IC50 (PI3K p110 beta/p85 alpha) | IC50 [6] | pKa [7] | IC50 [8] | pKa [9] | solubility [10] | remaining at 4 h [11] | remaining at 0.05 h [12]
Cc1csc2cc([C@H](C)Nc3ncnc(N)c3C#N)c(-c3cccc(CN(C)CCCCN4C[C@@H](C)O[C@@H](C)C4)c3)c(=O)n12 | 0.00631 µM | 3.9% | 0.00126 µM | 1.5 | 7.6 h | 0.0794 µM | ≥ 0.2 µM | 6.3 | ≥ 0.631 µM | 8.9 |  |  | 
Cc1csc2cc([C@H](C)Nc3ncnc(N)c3C#N)c(-c3cccc(CCN(C)C)c3)c(=O)n12 | 0.00251 µM |  | 0.000794 µM | 0.5 |  | 0.0501 µM | > 1 µM |  | 1.26 µM |  |  |  | 
Cc1csc2cc([C@H](C)Nc3ncnc(N)c3C#N)c(-c3cccc(CN(C)CCCCN(C)Cc4ccccc4)c3)c(=O)n12 | 0.002 µM | 7.4% | 0.000501 µM | 2.2 | 17.6 h | 0.0158 µM | ≥ 0.2 µM | 7 | ≥ 0.631 µM | 9.1 |  |  | 
COCCNCc1cccc(-c2c([C@H](C)Nc3ncnc(N)c3C#N)cc3scc(C)n3c2=O)c1 | 0.00251 µM | 0% | 0.000631 µM | 0.7 | 1.3 h | 0.02 µM | 0.398 µM |  | 1.26 µM |  | > 1000 µM | 0.8% | 
CNCc1cccc(-c2c([C@H](C)Nc3ncnc(N)c3C#N)cc3scc(C)n3c2=O)c1 | 0.02 µM | 0% | 0.000794 µM | -0.2 | 4.9 h | 0.01 µM | 0.631 µM |  | 1.26 µM |  | > 1000 µM | 2.5% | 
Cc1csc2cc([C@H](C)Nc3ncnc(N)c3C#N)c(-c3cccc(CN4CCC(CN(C)CC(C)C)CC4)c3)c(=O)n12 | 0.00251 µM | 3.3% | 0.000631 µM | 2.1 | 12 h | 0.0501 µM | ≥ 0.2 µM | 8 | ≥ 0.631 µM | 9.8 |  |  | 
Cc1csc2cc([C@H](C)Nc3ncnc(N)c3C#N)c(-c3cccc(CN)c3)c(=O)n12 | 0.0398 µM | 0% | 0.000631 µM | -0.3 | 1.6 h | 0.00794 µM | 0.2 µM |  | 1.26 µM |  | > 1000 µM | 2% | 
Cc1csc2cc([C@H](C)Nc3ncnc(N)c3C#N)c(-c3cccc(CNCCCCOCCc4ccccc4)c3)c(=O)n12 | 0.00126 µM | 0% | 0.000398 µM | 2.3 | 3.5 h | 0.00794 µM | 0.316 µM |  | 0.501 µM |  | 699 µM (≈ 425 µg/mL) | 4.8% | 
Cc1csc2cc([C@H](C)Nc3ncnc(N)c3C#N)c(-c3cccc(CC4CCN(C(C)C)CC4)c3)c(=O)n12 | 0.00158 µM |  | 0.000631 µM | 1.1 |  | 0.398 µM | 0.251 µM |  | 1 µM |  |  |  | 
CCN(CCN1CCOCC1)Cc1cccc(-c2c([C@H](C)Nc3ncnc(N)c3C#N)cc3scc(C)n3c2=O)c1 | 0.00126 µM | 0% | 0.000794 µM | 1.4 |  | 0.251 µM | ≥ 0.2 µM | 4 | ≥ 0.631 µM | 8 |  |  | 
Cc1csc2cc([C@H](C)Nc3ncnc(N)c3C#N)c(-c3cccc(CN(C)C)c3)c(=O)n12 | 0.00158 µM | 0% | 0.000794 µM | 0.8 | 2.3 h | 0.0631 µM | 0.631 µM |  | 3.16 µM |  | 956 µM (≈ 439 µg/mL) | 0.2% | 
Cc1csc2cc([C@H](C)Nc3ncnc(N)c3C#N)c(-c3cccc(CN(C)CC(C)C)c3)c(=O)n12 | 0.000631 to 0.00158 µM | 0% | 0.000501 µM | 2.3 |  | 0.1 µM | > 0.794 µM |  | 2 µM |  | 12 µM (≈ 6.02 µg/mL) | 0% | 6.5%
Cc1csc2cc([C@H](C)Nc3ncnc(N)c3C#N)c(-c3cccc(CN4CCC4)c3)c(=O)n12 | 0.00251 µM | 0% | 0.000501 µM | 0.5 | 1.1 h | 0.0398 µM | 0.501 µM |  | 1.58 µM |  | 954 µM (≈ 450 µg/mL) | 0.5% | 
Cc1csc2cc([C@H](C)Nc3ncnc(N)c3C#N)c(-c3cccc(CN(C)CCCN(C)Cc4ccc(Cl)cc4)c3)c(=O)n12 | 0.00316 µM | 3.3% | 0.000631 µM | 3.2 | 13 h | 0.0126 µM | ≥ 0.2 µM | 7.5 | ≥ 0.631 µM | 8.8 |  |  | 
Cc1csc2cc([C@H](C)Nc3ncnc(N)c3C#N)c(-c3cccc(CNCCN4CCOCC4)c3)c(=O)n12 | 0.0126 µM | 0.1% | 0.000631 µM | 0.6 | 4.2 h | 0.02 µM | ≥ 0.2 µM | 4.7 | ≥ 0.631 µM | 9.6 |  |  | 
Cc1csc2cc([C@H](C)Nc3ncnc(N)c3C#N)c(-c3ccccc3)c(=O)n12 | 0.000631 to 0.000794 µM | 0% | 0.000398 µM | 2.7 | < 0.1 h | 0.0501 µM | 0.0126 µM |  | 0.631 µM |  | 77 µM (≈ 31 µg/mL) | 0% | 2%
Cc1csc2cc([C@H](C)Nc3ncnc(N)c3C#N)c(-c3cccc(CN4CCC(CN(C)Cc5ccccn5)CC4)c3)c(=O)n12 | 0.002 µM | 5.2% | 0.000794 µM | 2 | 10.9 h | 0.0631 µM | ≥ 0.2 µM | 7 | ≥ 0.631 µM | 9 |  |  | 
Cc1csc2cc([C@H](C)Nc3ncnc(N)c3C#N)c(-c3cccc(CN(C)CCCN4C[C@@H](C)O[C@@H](C)C4)c3)c(=O)n12 | 0.00501 µM | 0.8% | 0.00126 µM | 1.5 | 5.9 h | 0.126 µM | ≥ 0.2 µM | 5.7 | ≥ 0.631 µM | 8.5 |  |  | 
Cc1csc2cc([C@H](C)Nc3ncnc(N)c3C#N)c(-c3cccc(OCCN(C)C)c3)c(=O)n12 | 0.00631 µM |  | 0.00158 µM | 0.7 |  | 0.2 µM | 0.316 µM |  | 7.94 µM |  |  |  | 
